Laboratory results as given in patent US20220409617A1, “Drug Formulations and Methods of Treatment for Metabolic Disorders” (The Regents of the University of California, priority 2019, published 2022).

Experiments:
[1] = Plasma pharmacokinetics in mice; assay type: in vivo; settings: mouse, po, single dose 120 mg/kg by gavage
Protocol: Plasma pharmacokinetic analysis of sphingolipid-like compound 893 was performed by Pharmaron Corporation (Beijing, China). C16:0 ceramide levels were quantified in cells using the method described in (T. Kasumov, et al., Anal. Biochem. 401: 154-161, 2010, the disclosure of which is incorporated herein by reference) with minor modifications. Cultured cells were washed twice in PBS and scraped into 250 μL of HPLC grade water and flash frozen until time of analysis. On the day of analysis, samples were thawed, and an aliquot used for protein quantification. For C16:0 ceramide levels in mouse liver, 25 mg of tissue was homogenized in 1 ml of ice-cold PBS using a mechanical probe homogenizer (VWR, Radnor, Pa.), protein levels quantified, and 50 μl of the homogenate diluted with 150 μl HPLC-grade water for C16:0 ceramide analysis. […] Samples were analyzed by ultra-performance liquid chromatography tandem mass spectrometry (UPLC-MS/MS) using a Waters Micromass Quattro Premier XE equipped with a Waters ACQUITY BEH C4 column (Waters Corp.). […] Standard curves prepared from C16:0 ceramide (#860516, Avanti Polar Lipids, Alabaster, Ala.) dissolved in ethanol were used for quantitation and were linear from 4.1 nM-1,000 nM, with an R^2 of 0.98 or greater.

[2] = system: 3T3-L1 adipocytes; test: Insulin-stimulated 2-deoxyglucose uptake; assay type: cell-based, mouse; settings: 3 h, 893 10 μM, MK-2206 2 μM
Protocol: 3T3-L1 cells were maintained in DMEM with 10% FBS and 1% penicillin-streptomycin until induced to differentiate. 3T3-L1 pre-adipocytes were differentiated as described in (M. P. Valley, et al., Anal. Biochem. 505: 43-50, 2016, the disclosure of which is incorporated herein by reference) with slight modifications. Briefly, pre-adipocytes were grown to confluence. After 2 d, cells were induced with maintenance media containing 500 μM IBMX (15879, Sigma-Aldrich, St. Louis, Mo.), 1 μM dexamethasone (D4902, Sigma-Aldrich), 5 μg/mL bovine insulin (10516, Sigma-Aldrich), and 5 μM troglitazone (50-115-0786, ApexBio). Media was changed every 2-3 d for 7 d. On day 7 post-induction, media was changed to maintenance media+5 μg/mL bovine insulin. On day 9 post-induction, media was changed to maintenance media. Mature adipocytes were used 12-14 d post-induction for all experiments. LSL-KrasG12D mouse embryonic fibroblasts (MEFs) with and without Cre-mediated deletion of the STOP cassette were obtained from David Tuveson (Cold Spring Harbor Laboratory, Cold Spring Harbor N.Y., USA) in 2000. p53^flox/flox MEFs were derived in house (2015) from C57BL/6 mice using standard techniques and immortalized by transient expression of Cre recombinase and deletion of p53. MEFs were cultured and maintained in DMEM with 10% FBS and 1% penicillin-streptomycin. […]

With `CCCCCCCCc1ccc([C@H]2CCN[C@@H]2CO)cc1.Cl` [compound 893] the Tmax [1] was 4 h, the half-life [1] was 10.6 h and the Insulin-stimulated glucose uptake [2] was “but not sphingolipid-like compound 893, impeded insulin-stimulated glucose uptake in adipocytes”.
